In patent publication US20210122730A1, “GLUCOCORTICOID RECEPTOR MODULATORS” (ORIC Pharmaceuticals, Inc., priority 2017, published 2021):

Experiments:
CYP2C8 = target: T1, CYP2C8 (Homo sapiens, UniProt P10632); assay: CYP Inhibition Assay (CYP2C8, human liver microsomes, paclitaxel substrate); format: in vitro ADME; conditions: pH 7.4; pooled human liver microsomes 0.1 mg/mL, probe substrate paclitaxel
T1 construct: Pooled human microsomes were obtained from Sekisui XenoTech, KS; tissue Sekisui XenoTech, KS; host or cells: pooled human liver microsomes
T1 sequence (P10632 1-490): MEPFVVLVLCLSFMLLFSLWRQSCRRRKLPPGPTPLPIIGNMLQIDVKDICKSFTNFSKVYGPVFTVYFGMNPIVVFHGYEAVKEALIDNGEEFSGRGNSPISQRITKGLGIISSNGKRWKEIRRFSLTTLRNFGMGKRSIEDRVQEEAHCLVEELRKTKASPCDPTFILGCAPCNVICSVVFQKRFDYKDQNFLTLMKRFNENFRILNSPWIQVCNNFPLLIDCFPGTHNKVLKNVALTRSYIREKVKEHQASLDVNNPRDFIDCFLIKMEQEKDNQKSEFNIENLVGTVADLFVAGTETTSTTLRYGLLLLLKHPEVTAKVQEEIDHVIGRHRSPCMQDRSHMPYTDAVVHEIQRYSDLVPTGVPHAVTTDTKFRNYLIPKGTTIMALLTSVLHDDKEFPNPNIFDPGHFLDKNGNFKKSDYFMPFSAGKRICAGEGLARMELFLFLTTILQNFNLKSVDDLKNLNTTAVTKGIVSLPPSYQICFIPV
Experimental: Example B: CYP Inhibition Assay
Objective: To assess the % inhibition of test compounds against CYP2C8 enzyme in human liver microsomes.
Pooled human microsomes were obtained from Sekisui XenoTech, KS, and were used for in vitro assessment of compound inhibitory potential of the major drug metabolizing human CYP enzymes.
Test compounds were dissolved in DMSO as 10 mM stock solutions and diluted to 200 µM in acetonitrile as working solutions. The total concentrations of DMSO and acetonitrile were 0.02% and 0.5%, respectively, in the assay.
The assay was performed in duplicate in a 96-well plate. The reaction mixture ([…]) containing a final concentration of 0.1 mg/mL pooled human liver microsomes, 50 mM potassium phosphate, pH 7.4 buffer, was re-warmed at 37° C. for 5 minutes. The reaction was initiated with NADPH solution which was at 1 mM final concentration, and carried out for 5 minutes at 37° C. It was terminated by the addition of 3-fold volume of quench solution (1:1 acetonitrile:methanol with 0.1% formic acid and the internal standard of tolbutamide). The sample was vortexed, centrifuged at 4,000 rpm for 15 min at 4° C. The incubation in the presence of vehicle (0.02% DMSO and 0.5% acetonitrile) was used as the enzyme activity control. The analyses of metabolite 6α-hydroxypaclitaxel in supernatant was performed with LC-MS/MS method (Sciex API 4500 Qtrap coupled to a Shimadzu LC-20AD HPLC).
The CYP enzyme activity was determined based on the formation of 6a-hydroxypaclitaxel metabolite. The % inhibition was calculated using this equation: % Inhibition=100×(1−Ainactivator/Avehicle), where Ainactivator is the CYP enzyme activity in the presence of test compound, and Avehicle is the CYP activity in the presence of vehicle.

GR = target: T2, GR (Homo sapiens, UniProt P04150); assay: In Vitro GR Luciferase Reporter Assay (antagonist mode, CHO-K1-GR-MMTV-Luc reporter cells); format: cell-based; conditions: antagonist mode, 10 nM Dexamethasone
T2 construct: expressed in transfected cells; host or cells: CHO-K1
T2 sequence (P04150 1-777): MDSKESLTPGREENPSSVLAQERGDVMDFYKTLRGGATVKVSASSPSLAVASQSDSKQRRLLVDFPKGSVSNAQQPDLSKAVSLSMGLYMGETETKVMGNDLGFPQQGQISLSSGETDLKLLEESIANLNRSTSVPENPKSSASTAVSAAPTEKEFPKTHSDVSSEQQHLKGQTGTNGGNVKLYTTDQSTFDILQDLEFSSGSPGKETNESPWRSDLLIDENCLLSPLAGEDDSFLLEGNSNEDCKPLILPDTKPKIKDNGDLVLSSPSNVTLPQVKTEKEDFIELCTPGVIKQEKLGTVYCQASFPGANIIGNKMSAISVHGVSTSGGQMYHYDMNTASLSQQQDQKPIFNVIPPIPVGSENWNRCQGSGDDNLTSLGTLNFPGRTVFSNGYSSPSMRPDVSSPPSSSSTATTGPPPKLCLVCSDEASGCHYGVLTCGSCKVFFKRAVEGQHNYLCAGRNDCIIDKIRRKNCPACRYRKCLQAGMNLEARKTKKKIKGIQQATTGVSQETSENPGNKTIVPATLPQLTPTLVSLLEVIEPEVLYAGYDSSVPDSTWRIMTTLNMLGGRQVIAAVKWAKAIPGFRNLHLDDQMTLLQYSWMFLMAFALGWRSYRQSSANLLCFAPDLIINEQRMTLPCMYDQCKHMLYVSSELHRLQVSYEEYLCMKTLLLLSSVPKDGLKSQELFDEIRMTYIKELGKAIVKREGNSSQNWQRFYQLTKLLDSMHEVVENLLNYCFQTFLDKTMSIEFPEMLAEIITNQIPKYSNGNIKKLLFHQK
Procedure, shortened: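 CHO-K1-GR-MMTV-Luc cells in phenol red-free DMEM with 10% CSS, stimulated with 10 nM dexamethasone (final) and treated with 8-point 1:5 compound dilutions for about 18-24 h at 37° C. Luciferase measured by OneGlo luminescence; IC50 derived for inhibition of GR activity.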

| SMILES | inhibition at 5 min (CYP2C8) [%] | IC50 (GR) [nM] |
| --- | --- | --- |
| Cn1ccc(S(=O)(=O)N(C2CC2)[C@H]2CCC3=Cc4c(cnn4-c4ccc(F)cc4)C[C@]3(C(=O)c3ncc(C4CC4)s3)C2)n1 [Example 160, N-cyclopropyl-N-((4aS,6S)-4a-(5-cyclopropylthiazole-2-carbonyl)-1-(4-fluorophenyl)-4,4a,5,6,7,8-hexahydro-1H-benzo[f]indazol-6-yl)-1-methyl-1H-pyrazole-3-sulfonamide] | 50 to 75 | ≤ 100 |
| Cn1ccc(S(=O)(=O)N(C2CC2)[C@H]2CCC3=Cc4c(cnn4-c4ccc(F)cc4)C[C@]3(C(=O)c3ncc(C(F)(F)F)s3)C2)n1 [Example 164, N-cyclopropyl-N-((4aS,6S)-1-(4-fluorophenyl)-4a-(5 (trifluoromethyl)thiazole-2-carbonyl)-4,4a,5,6,7,8-hexahydro-1H-benzo[f]indazol-6-yl)-1-methyl-1H-pyrazole-3-sulfonamide] | 50 to 75 | ≤ 100 |
| Cn1cc(S(=O)(=O)N(C2CC2)[C@H]2CCC3=Cc4c(cnn4-c4ccc(F)cc4)C[C@]3(C(=O)c3ncc(C(F)(F)F)s3)C2)cn1 [Example 176, N-cyclopropyl-N-((4aS,6S)-1-(4-fluorophenyl)-4a-(5 (trifluoromethyl)thiazole-2-carbonyl)-4,4a,5,6,7,8-hexahydro-1H-benzo[f]indazol-6-yl)-1-methyl-1H-pyrazole-4-sulfonamide] | 25 to 50 | ≤ 100 |
| Cn1ccc(S(=O)(=O)N(CC2CC2)[C@H]2CCC3=Cc4c(cnn4-c4ccc(F)cc4)C[C@]3(C(=O)c3cc(C(F)(F)F)ccn3)C2)n1 [Example 178, N-(cyclopropylmethyl)-N-((4aS,6S)-1-(4-fluorophenyl)-4a-(4-(trifluoromethyl)picolinoyl)-4,4a,5,6,7,8-hexahydro-1H-benzo[f]indazol-6-yl)-1-methyl-1H-pyrazole-3-sulfonamide] | 25 to 50 | ≤ 100 |
| CC(C)N([C@H]1CCC2=Cc3c(cnn3-c3ccc(F)cc3)C[C@]2(C(=O)c2ncc(C(F)(F)F)s2)C1)S(=O)(=O)c1ccn(C)n1 [Example 182, N-((4aS,6S)-1-(4-fluorophenyl)-4a-(5-(trifluoromethyl)thiazole-2-carbonyl)-4,4a,5,6,7,8-hexahydro-1H-benzo[f]indazol-6-yl)-N-isopropyl-1-methyl-1H-pyrazole-3-sulfonamide] | 50 to 75 | ≤ 100 |
| Cn1ccc(S(=O)(=O)N(CC(C)(C)O)[C@H]2CCC3=Cc4c(cnn4-c4ccc(F)cc4)C[C@]3(C(=O)c3ncc(C(F)(F)F)s3)C2)n1 [Example 189, N-((4aS,6S)-1-(4-fluorophenyl)-4a-(5-(trifluoromethyl)thiazole-2-carbonyl)-4,4a,5,6,7,8-hexahydro-1H-benzo[f]indazol-6-yl)-N-(2-hydroxy-2-methylpropyl)-1-methyl-1H-pyrazole-3-sulfonamide] | 50 to 75 | ≤ 100 |

Continued, values first:

| inhibition at 5 min (CYP2C8) [%] | IC50 (GR) [nM] | SMILES |
| --- | --- | --- |
| 25 to 50 | ≤ 100 | CCN([C@H]1CCC2=Cc3c(cnn3-c3ccc(F)cc3)C[C@]2(C(=O)c2cc(C(F)(F)F)ccn2)C1)S(=O)(=O)c1cnn(C(F)F)c1 [Example 166, 1-(difluoromethyl)-N-ethyl-N-((4aS,6S)-1-(4-fluorophenyl)-4a-(4-(trifluoromethyl)picolinoyl)-4,4a,5,6,7,8-hexahydro-1H-benzo[f]indazol-6-yl)-1H-pyrazole-4-sulfonamide] |
| ≤ 25 | ≤ 100 | CN([C@H]1CCC2=Cc3c(cnn3-c3ccc(F)cc3)C[C@]2(C(=O)c2cc(C(F)(F)F)ccn2)C1)S(=O)(=O)c1cn(C)nn1 [Example 170, N-((4aS,6S)-1-(4-fluorophenyl)-4a-(4-(trifluoromethyl)picolinoyl)-4,4a,5,6,7,8-hexahydro-1H-benzo[f]indazol-6-yl)-N,1-dimethyl-1H-1,2,3-triazole-4-sulfonamide] |
| 25 to 50 | ≤ 100 | Cn1ncc(S(=O)(=O)N(C2CC2)[C@H]2CCC3=Cc4c(cnn4-c4ccc(F)cc4)C[C@]3(C(=O)c3ncc(C(F)(F)F)s3)C2)n1 [Example 183, N-cyclopropyl-N-((4aS,6S)-1-(4-fluorophenyl)-4a-(5 (trifluoromethyl)thiazole-2-carbonyl)-4,4a,5,6,7,8-hexahydro-1H-benzo[f]indazol-6-yl)-2-methyl-2H-1,2,3-triazole-4-sulfonamide] |
| 25 to 50 | ≤ 100 | Cn1ccc(S(=O)(=O)N(CC(F)(F)F)[C@H]2CCC3=Cc4c(cnn4-c4ccc(F)cc4)C[C@]3(C(=O)c3ncc(C(F)(F)F)s3)C2)n1 [Example 184, N-((4aS,6S)-1-(4-fluorophenyl)-4a-(5-(trifluoromethyl)thiazole-2-carbonyl)-4,4a,5,6,7,8-hexahydro-1H-benzo[f]indazol-6-yl)-1-methyl-N-(2,2,2-trifluoroethyl)-1H-pyrazole-3-sulfonamide] |
| 25 to 50 | ≤ 100 | CC(C)N([C@H]1CCC2=Cc3c(cnn3-c3ccc(F)cc3)C[C@]2(C(=O)c2ncc(C(F)(F)F)s2)C1)S(=O)(=O)c1cnn(C)c1 [Example 191, N-((4aS,6S)-1-(4-fluorophenyl)-4a-(5-(trifluoromethyl)thiazole-2-carbonyl)-4,4a,5,6,7,8-hexahydro-1H-benzo[f]indazol-6-yl)-N-isopropyl-1-methyl-1H-pyrazole-4-sulfonamide] |
| 50 to 75 | ≤ 100 | CC(C)N([C@H]1CCC2=Cc3c(cnn3-c3ccc(F)cc3)C[C@]2(C(=O)c2cc(C(F)(F)F)ccn2)C1)S(=O)(=O)c1cnn(C)c1 [Example 193, N-((4aS,6S)-1-(4-fluorophenyl)-4a-(4-(trifluoromethyl)picolinoyl)-4,4a,5,6,7,8-hexahydro-1H-benzo[f]indazol-6-yl)-N-isopropyl-1-methyl-1H-pyrazole-4-sulfonamide] |
| 50 to 75 | ≤ 100 | Cn1ncc(S(=O)(=O)N(CC2CC2)[C@H]2CCC3=Cc4c(cnn4-c4ccc(F)cc4)C[C@]3(C(=O)c3ncc(C(F)(F)F)s3)C2)n1 [Example 194, N-(cyclopropylmethyl)-N-((4aS,6S)-1-(4-fluorophenyl)-4a-(5-(trifluoromethyl)thiazole-2-carbonyl)-4,4a,5,6,7,8-hexahydro-1H-benzo[f]indazol-6-yl)-2-methyl-2H-1,2,3-triazole-4-sulfonamide] |
| 25 to 50 | ≤ 100 | Cn1ccc(S(=O)(=O)N(CC(C)(C)O)[C@H]2CCC3=Cc4c(cnn4-c4ccc(F)cc4)C[C@]3(C(=O)c3cc(C(F)(F)F)ccn3)C2)n1 [Example 195, N-((4aS,6S)-1-(4-fluorophenyl)-4a-(4-(trifluoromethyl)picolinoyl)-4,4a,5,6,7,8-hexahydro-1H-benzo[f]indazol-6-yl)-N-(2-hydroxy-2-methylpropyl)-1-methyl-1H-pyrazole-3-sulfonamide] |
